Values after ≈ are worked out from the molar mass of the structure shown.
Legend:
Format in all cases: functional
[1] = tested on: Tetranychus urticae; assay: Insecticidal activity against Tetranychus urticae (two-spotted spider mite) in kidney bean plant leaf assessed as mortality at 500 ppm after 2 days; conditions: 48 h
[2] = tested on: Henosepilachna vigintioctopunctata; assay: Insecticidal activity against third-instar larvae of Henosepilachna vigintioctopunctata assessed as mortality after 2 days; conditions: 48 h
[3] = tested on: Chilo suppressalis; assay: Insecticidal activity against 5th instar larva of Chilo suppressalis assessed as mortality at 50 ug/g after 48 hr
[4] = tested on: Laodelphax striatellus; assay: Insecticidal activity against 3rd instar larva of Laodelphax striatella (small brown planthopper) assessed as mortality at 50 ppm after 6 days; conditions: 144 h
[5] = tested on: Spodoptera litura; assay: Insecticidal activity against third-instar larvae of Spodoptera litura in soybean seedlings assessed as mortality at 500 ppm after 48 hr

Compound	mortality at 500 ppm [1] [%]	LC50 [2] [µg/mL]	mortality [3] [%]	mortality at 50 ppm [4] [%]	mortality at 500 ppm [5] [%]
Cc1ccc(C)c(C2(C#N)SCC(N(C)C)CS2)c1 (stereo not drawn)	100	25 (≈ 85.5 µM)	100	15	–
CN(C)C1CSC(C#N)(C(N)=O)SC1 (stereo not drawn)	100	30 (≈ 130 µM)	100	35	100
CNC(=O)C1(C#N)SCC(N(C)C)CS1 (stereo not drawn)	100	25 (≈ 102 µM)	100	50	90
CCNC(=O)C1(C#N)SCC(N(C)C)CS1 (stereo not drawn)	90	6 (≈ 23.1 µM)	100	20	80
CCCNC(=O)C1(C#N)SCC(N(C)C)CS1 (stereo not drawn)	100	11 (≈ 40.2 µM)	100	20	60
CC(C)NC(=O)C1(C#N)SCC(N(C)C)CS1 (stereo not drawn)	100	40 (≈ 146 µM)	100	20	40
CCCCNC(=O)C1(C#N)SCC(N(C)C)CS1 (stereo not drawn)	100	40 (≈ 139 µM)	100	20	80
CCC(C)NC(=O)C1(C#N)SCC(N(C)C)CS1 (stereo not drawn)	100	33 (≈ 115 µM)	100	25	80
CN(C)C1CSC(C#N)(C(=O)NC(C)(C)C)SC1 (stereo not drawn)	100	20 (≈ 69.6 µM)	100	45	80
CCCCCNC(=O)C1(C#N)SCC(N(C)C)CS1 (stereo not drawn)	50	10 (≈ 33.2 µM)	100	29	50
CCCCCCNC(=O)C1(C#N)SCC(N(C)C)CS1 (stereo not drawn)	100	10 (≈ 31.7 µM)	100	65	70
CCCCCCCNC(=O)C1(C#N)SCC(N(C)C)CS1 (stereo not drawn)	90	23 (≈ 69.8 µM)	100	80	80
CCCCCCCCNC(=O)C1(C#N)SCC(N(C)C)CS1 (stereo not drawn)	100	23 (≈ 66.9 µM)	100	80	80
CCCCCCCCCNC(=O)C1(C#N)SCC(N(C)C)CS1 (stereo not drawn)	100	23 (≈ 64.3 µM)	100	100	90
CCCCCCCCCCNC(=O)C1(C#N)SCC(N(C)C)CS1 (stereo not drawn)	90	20 (≈ 53.8 µM)	100	85	50
CCCCCCCCCCCCCCNC(=O)C1(C#N)SCC(N(C)C)CS1 (stereo not drawn)	70	33 (≈ 77.2 µM)	100	25	70
CN(C)C1CSC(C#N)(C(=O)NC2CC2)SC1 (stereo not drawn)	40	8 (≈ 29.5 µM)	100	25	50
CN(C)C1CSC(C#N)(C(=O)NC2CCCCC2)SC1 (stereo not drawn)	80	25 (≈ 79.7 µM)	100	40	50
CN(C)C(=O)C1(C#N)SCC(N(C)C)CS1 (stereo not drawn)	70	11 (≈ 42.4 µM)	100	20	80
CCN(CC)C(=O)C1(C#N)SCC(N(C)C)CS1 (stereo not drawn)	80	15 (≈ 52.2 µM)	100	24	80
CC(C)N(C(=O)C1(C#N)SCC(N(C)C)CS1)C(C)C (stereo not drawn)	100	16 (≈ 50.7 µM)	100	26	60
CN(C)C1CSC(C#N)(C(=O)N2CCCC2)SC1 (stereo not drawn)	100	10 (≈ 35 µM)	100	25	20
CN1CCN(C(=O)C2(C#N)SCC(N(C)C)CS2)CC1 (stereo not drawn)	100	20 (≈ 63.6 µM)	100	35	20
CN(C)C1CSSC1 [NEREISTOXIN]	50	–	100	80	90

Source: ChEMBL document CHEMBL3044990, “Synthesis and Insecticidal Activity of 5-Dimethylamino-1, 3dithianes” (1991)
